Experimental data: PubChem BioAssay (NCI)
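All cell lines were grown in 96-well plates and treated with compound for 48 hours. Abbreviation: GI50, concentration required for 50% inhibition of growth. The concentration for full growth arrest is given as TGI.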

What was measured:
Test in all cases: growth of human tumour cells (NCI), 48 h
786-0 renal = system: 786-0 renal
A498 renal = system: A498 renal
A549 NSCLC = system: A549 NSCLC
ACHN renal = system: ACHN renal
BT-549 breast = system: BT-549 breast
CAKI-1 renal = system: CAKI-1 renal
CCRF-CEM leukemia = system: CCRF-CEM leukemia
COLO 205 colon = system: COLO 205 colon
DU-145 prostate = system: DU-145 prostate
EKVX NSCLC = system: EKVX NSCLC
HCC-2998 colon = system: HCC-2998 colon
HCT-116 colon = system: HCT-116 colon
HCT-15 colon = system: HCT-15 colon
HL-60(TB) leukemia = system: HL-60(TB) leukemia
HOP-62 NSCLC = system: HOP-62 NSCLC
HOP-92 NSCLC = system: HOP-92 NSCLC
HS 578T breast = system: HS 578T breast
HT29 colon = system: HT29 colon
IGROV1 ovarian = system: IGROV1 ovarian
K-562 leukemia = system: K-562 leukemia
KM12 colon = system: KM12 colon
LOX IMVI melanoma = system: LOX IMVI melanoma
M14 melanoma = system: M14 melanoma
MALME-3M melanoma = system: MALME-3M melanoma
MCF7 breast = system: MCF7 breast
MDA-MB-231 breast = system: MDA-MB-231 breast
MDA-MB-435 = system: MDA-MB-435
MOLT-4 leukemia = system: MOLT-4 leukemia
NCI-H226 lung = system: NCI-H226 lung
NCI-H23 lung = system: NCI-H23 lung
NCI-H460 lung = system: NCI-H460 lung
NCI-H522 lung = system: NCI-H522 lung
NCI/ADR-RES ovarian = system: NCI/ADR-RES ovarian
OVCAR-3 ovarian = system: OVCAR-3 ovarian
OVCAR-4 ovarian = system: OVCAR-4 ovarian
OVCAR-5 ovarian = system: OVCAR-5 ovarian
OVCAR-8 ovarian = system: OVCAR-8 ovarian
PC-3 prostate = system: PC-3 prostate
RPMI-8226 leukemia = system: RPMI-8226 leukemia
RXF 393 renal = system: RXF 393 renal
SF-268 CNS = system: SF-268 CNS
SF-295 CNS = system: SF-295 CNS
SF-539 CNS = system: SF-539 CNS
SK-MEL-2 melanoma = system: SK-MEL-2 melanoma
SK-MEL-28 melanoma = system: SK-MEL-28 melanoma
SK-MEL-5 melanoma = system: SK-MEL-5 melanoma
SK-OV-3 ovarian = system: SK-OV-3 ovarian
SN12C renal = system: SN12C renal
SNB-19 CNS = system: SNB-19 CNS
SNB-75 CNS = system: SNB-75 CNS
SR leukemia = system: SR leukemia
SW-620 colon = system: SW-620 colon
T-47D breast = system: T-47D breast
TK-10 renal = system: TK-10 renal
U251 CNS = system: U251 CNS
UACC-257 melanoma = system: UACC-257 melanoma
UACC-62 melanoma = system: UACC-62 melanoma
UO-31 renal = system: UO-31 renal

## CC1=C2[C@@H](CC1)[C@]1(C)O[C@@](C(C)C)(C[C@H]1OC(=O)[C@H](C)O)[C@H]2OC(=O)/C=C/c1ccccc1
786-0 renal
  GI50: 3.26 µM
  TGI: 25.4 µM
A498 renal
  GI50: 0.236 µM
  TGI: 0.702 µM
A549 NSCLC
  GI50: 12.5 µM
  TGI: 28.9 µM
ACHN renal
  GI50: 0.145 µM
  TGI: 13 µM
BT-549 breast
  GI50: 0.888 µM
  TGI: 15.7 µM
CAKI-1 renal
  GI50: 6.12 µM
  TGI: 26 µM
CCRF-CEM leukemia
  GI50: 16.2 µM
  TGI: 41.9 µM
COLO 205 colon
  GI50: 16.9 µM
  TGI: 36.2 µM
DU-145 prostate
  GI50: 15.9 µM
  TGI: 31.9 µM
EKVX NSCLC
  GI50: 6.19 µM
  TGI: 21.7 µM
HCC-2998 colon
  GI50: 13.4 µM
  TGI: 28.2 µM
HCT-116 colon
  GI50: 13.4 µM
  TGI: 29.2 µM
HCT-15 colon
  GI50: 11.2 µM
  TGI: 25.4 µM
HL-60(TB) leukemia
  GI50: 13.5 µM
  TGI: 39.5 µM
HOP-62 NSCLC
  GI50: 13.9 µM
  TGI: 29.3 µM
HOP-92 NSCLC
  GI50: 5.95 µM
  TGI: 19.4 µM
HS 578T breast
  GI50: 0.0529 µM
  TGI: 0.378 µM
HT29 colon
  GI50: 13.6 µM
  TGI: 30 µM
IGROV1 ovarian
  GI50: 19.2 µM
  TGI: 49.8 µM
K-562 leukemia
  GI50: 12.5 µM
  TGI: 49.8 µM
KM12 colon
  GI50: 14.8 µM
  TGI: 33 µM
LOX IMVI melanoma
  GI50: 15.1 µM
  TGI: 30.7 µM
M14 melanoma
  GI50: 13.4 µM
  TGI: 32.5 µM
MALME-3M melanoma
  GI50: 14.9 µM
  TGI: 31.6 µM
MCF7 breast
  GI50: 8.15 µM
  TGI: 23.5 µM
MDA-MB-231 breast
  GI50: 15.3 µM
  TGI: 36.4 µM
MDA-MB-435
  GI50: 15.5 µM
  TGI: 30.9 µM
MOLT-4 leukemia
  GI50: 10.7 µM
  TGI: 32 µM
NCI-H226 lung
  GI50: 12.9 µM
  TGI: 29.6 µM
NCI-H23 lung
  GI50: 14.3 µM
  TGI: 33.3 µM
NCI-H460 lung
  GI50: 14.8 µM
  TGI: 36.7 µM
NCI-H522 lung
  GI50: 13.3 µM
  TGI: 29.1 µM
NCI/ADR-RES ovarian
  GI50: 0.428 µM
  TGI: 16 µM
OVCAR-3 ovarian
  GI50: 12.5 µM
  TGI: 26.1 µM
OVCAR-4 ovarian
  GI50: 10.3 µM
  TGI: 24.9 µM
OVCAR-5 ovarian
  GI50: 17.7 µM
  TGI: 36.2 µM
OVCAR-8 ovarian
  GI50: 0.451 µM
  TGI: 16.6 µM
PC-3 prostate
  GI50: 4.46 µM
  TGI: 19.1 µM
RPMI-8226 leukemia
  GI50: 7.9 µM
  TGI: 30.8 µM
RXF 393 renal
  GI50: 0.111 µM
  TGI: 2.41 µM
SF-268 CNS
  GI50: 2.13 µM
  TGI: 23.1 µM
SF-295 CNS
  GI50: 11.5 µM
  TGI: 24.8 µM
SF-539 CNS
  GI50: 15 µM
  TGI: 30.9 µM
SK-MEL-2 melanoma
  GI50: 16.1 µM
  TGI: 33 µM
SK-MEL-28 melanoma
  GI50: 16.5 µM
  TGI: 34.3 µM
SK-MEL-5 melanoma
  GI50: 13.6 µM
  TGI: 26.7 µM
SK-OV-3 ovarian
  GI50: 15.3 µM
  TGI: 38 µM
SN12C renal
  GI50: 1.47 µM
  TGI: 24.6 µM
SNB-19 CNS
  GI50: 17.1 µM
  TGI: 37.2 µM
SNB-75 CNS
  GI50: 19.2 µM
  TGI: 51.2 µM
SR leukemia
  GI50: 10.3 µM
  TGI: 37.5 µM
SW-620 colon
  GI50: 16.4 µM
  TGI: 33.9 µM
T-47D breast
  GI50: 5.38 µM
  TGI: 22.4 µM
TK-10 renal
  GI50: 16.3 µM
  TGI: 32 µM
U251 CNS
  GI50: 14.2 µM
  TGI: 28 µM
UACC-257 melanoma
  GI50: 17 µM
  TGI: 34.1 µM
UACC-62 melanoma
  GI50: 12.2 µM
  TGI: 27.4 µM
UO-31 renal
  GI50: 1.01 µM
  TGI: 18.7 µM
